Measurements: paper PMC8371461 (Frontiers in Pharmacology, 2021)

Tests used:
PCTK3 = target: T1, PCTK3 (Homo sapiens, UniProt Q07002); assay: kinome scan; type: binding; settings: 10 µM
T1 construct: purchased DiscoverX (KINOMEscan)

GRK7 = target: T2, GRK7 (Homo sapiens, UniProt Q8WTQ7); assay: kinome scan; type: binding; settings: 10 µM
T2 construct: purchased DiscoverX (KINOMEscan)

TESK1 = target: T3, TESK1 (Homo sapiens, UniProt Q15569); assay: kinome scan; type: binding; settings: 10 µM
T3 construct: purchased DiscoverX (KINOMEscan)
T3 sequence (Q15569 whole entry): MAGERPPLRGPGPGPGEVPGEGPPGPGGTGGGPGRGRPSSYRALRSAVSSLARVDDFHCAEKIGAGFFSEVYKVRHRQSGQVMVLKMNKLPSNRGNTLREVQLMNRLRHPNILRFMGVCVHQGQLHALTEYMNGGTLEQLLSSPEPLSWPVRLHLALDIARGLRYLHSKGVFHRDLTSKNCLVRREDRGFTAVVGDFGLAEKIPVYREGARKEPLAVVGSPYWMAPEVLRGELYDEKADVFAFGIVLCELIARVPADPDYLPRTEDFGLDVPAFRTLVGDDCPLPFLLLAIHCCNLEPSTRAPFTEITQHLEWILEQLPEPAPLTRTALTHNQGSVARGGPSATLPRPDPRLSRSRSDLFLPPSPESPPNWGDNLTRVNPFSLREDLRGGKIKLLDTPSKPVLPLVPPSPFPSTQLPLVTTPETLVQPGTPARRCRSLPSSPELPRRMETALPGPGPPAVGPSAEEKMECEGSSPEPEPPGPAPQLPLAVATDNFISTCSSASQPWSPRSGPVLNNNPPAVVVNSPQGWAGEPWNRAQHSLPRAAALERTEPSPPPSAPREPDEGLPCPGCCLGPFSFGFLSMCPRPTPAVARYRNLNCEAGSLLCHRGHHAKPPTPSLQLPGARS

ERK = ERK phosphorylation by Western blotting; type: cell-based, mouse; settings: PSC, data not shown
Description: It is noteworthy that, in parallel, a regulation of the ERK pathway was not confirmed at the protein level, assessed by the study of ERK phosphorylation by Western blotting (data not shown). The effects of the drug on proliferation or differentiation was next investigated in quantitative assays. The rate of cell proliferation of the PSC, assessed during five days by quantification of intracellular ATP, was not affected by the drug (Figure 2A). The CGR8 PSC line was stably transduced with a dual promoter/reporter gene construct containing a ubiquitous promoter (EF1αS) controlling the expression of Renilla Luciferase (RLuc) and also an early neural-specific promoter (Tα1), controlling the expression of Firefly Luciferase (FLuc). Then, neural differentiation was quantified by the normalized ratio between FLuc and RLuc ([Suter et al., 2009]). […] After 72 h, the cells were lysed for RLuc and FLuc luminescence measurement in the presence of their substrates, each signal being normalized with the signal obtained with the vehicle alone (DMSO).

ULK1 = target: T4, ULK1 (Homo sapiens, UniProt O75385); assay: kinome scan; type: binding; settings: 10 µM
T4 construct: purchased DiscoverX (KINOMEscan)

AURKC = target: T5, AURKC (Homo sapiens, UniProt Q9UQB9); assay: kinome scan; type: binding; settings: 10 µM
T5 construct: purchased DiscoverX (KINOMEscan)
T5 sequence (Q9UQB9 whole entry): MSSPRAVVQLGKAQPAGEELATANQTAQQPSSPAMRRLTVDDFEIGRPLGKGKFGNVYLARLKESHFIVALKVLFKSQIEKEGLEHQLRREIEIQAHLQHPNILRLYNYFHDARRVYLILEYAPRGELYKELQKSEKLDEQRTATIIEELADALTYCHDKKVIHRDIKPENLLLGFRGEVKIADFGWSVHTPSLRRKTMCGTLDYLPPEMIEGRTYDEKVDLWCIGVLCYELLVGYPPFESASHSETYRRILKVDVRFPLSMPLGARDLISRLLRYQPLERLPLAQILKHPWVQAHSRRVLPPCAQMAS

CSNK1E = target: T6, CSNK1E (Homo sapiens, UniProt P49674); assay: kinome scan; type: binding; settings: 10 µM
T6 construct: purchased DiscoverX (KINOMEscan)
T6 sequence (P49674 whole entry): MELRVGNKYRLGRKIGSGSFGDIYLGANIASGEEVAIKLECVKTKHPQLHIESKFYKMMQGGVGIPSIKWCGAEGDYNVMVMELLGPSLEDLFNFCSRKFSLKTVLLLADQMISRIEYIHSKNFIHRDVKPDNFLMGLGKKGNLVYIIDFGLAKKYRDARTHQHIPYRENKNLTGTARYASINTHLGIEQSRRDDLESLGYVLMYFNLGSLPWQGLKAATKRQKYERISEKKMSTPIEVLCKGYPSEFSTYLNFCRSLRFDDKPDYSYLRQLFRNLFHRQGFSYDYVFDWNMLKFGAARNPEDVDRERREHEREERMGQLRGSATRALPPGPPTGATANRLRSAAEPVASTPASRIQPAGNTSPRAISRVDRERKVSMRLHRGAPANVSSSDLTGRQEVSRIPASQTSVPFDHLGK

STK36 = target: T7, STK36 (Homo sapiens, UniProt Q9NRP7); assay: kinome scan; type: binding; settings: 10 µM
T7 construct: purchased DiscoverX (KINOMEscan)

HCK = target: T8, HCK (Homo sapiens, UniProt P08631); assay: kinome scan; type: binding; settings: 10 µM
T8 construct: purchased DiscoverX (KINOMEscan)

PIP5K1A = target: T9, PIP5K1A (Homo sapiens, UniProt Q99755); assay: kinome scan; type: binding; settings: 10 µM
T9 construct: purchased DiscoverX (KINOMEscan)
T9 sequence (Q99755 whole entry): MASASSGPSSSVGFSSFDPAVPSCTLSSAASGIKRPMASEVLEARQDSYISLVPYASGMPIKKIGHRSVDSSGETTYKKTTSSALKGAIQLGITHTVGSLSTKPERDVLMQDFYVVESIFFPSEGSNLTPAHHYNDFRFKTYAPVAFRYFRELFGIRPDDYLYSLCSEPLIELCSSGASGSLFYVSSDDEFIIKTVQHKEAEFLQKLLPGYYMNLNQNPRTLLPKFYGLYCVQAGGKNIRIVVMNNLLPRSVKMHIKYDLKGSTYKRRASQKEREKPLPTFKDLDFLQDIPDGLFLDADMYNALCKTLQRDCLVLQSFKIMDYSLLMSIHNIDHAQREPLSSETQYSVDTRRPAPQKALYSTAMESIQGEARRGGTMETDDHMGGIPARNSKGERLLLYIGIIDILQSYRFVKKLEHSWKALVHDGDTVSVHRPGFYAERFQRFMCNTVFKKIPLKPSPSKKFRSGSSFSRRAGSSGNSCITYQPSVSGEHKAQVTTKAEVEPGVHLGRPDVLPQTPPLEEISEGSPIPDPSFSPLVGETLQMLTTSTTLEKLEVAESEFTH

MAP3K2 = target: T10, MAP3K2 (Homo sapiens, UniProt Q9Y2U5); assay: kinome scan; type: binding; settings: 10 µM
T10 construct: purchased DiscoverX (KINOMEscan)

EGFR(L858RT790M) = target: T11, EGFR(L858RT790M) (Homo sapiens, UniProt P00533, L858R/T790M); assay: kinome scan; type: binding; settings: 10 µM
T11 construct: purchased DiscoverX (KINOMEscan)
T11 sequence (P00533 669-1011 T790M/L858R limits assumed): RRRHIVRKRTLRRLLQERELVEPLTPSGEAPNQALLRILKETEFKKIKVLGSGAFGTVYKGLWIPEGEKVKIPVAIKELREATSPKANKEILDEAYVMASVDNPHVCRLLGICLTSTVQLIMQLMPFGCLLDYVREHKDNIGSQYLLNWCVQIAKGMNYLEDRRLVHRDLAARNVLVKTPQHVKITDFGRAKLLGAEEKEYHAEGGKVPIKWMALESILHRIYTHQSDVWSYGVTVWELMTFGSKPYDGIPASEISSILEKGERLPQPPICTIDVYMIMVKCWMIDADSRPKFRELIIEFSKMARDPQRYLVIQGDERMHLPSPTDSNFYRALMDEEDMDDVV

NEK2 = target: T12, NEK2 (Homo sapiens, UniProt P51955); assay: kinome scan; type: binding; settings: 10 µM
T12 construct: purchased DiscoverX (KINOMEscan)

LATS2 = target: T13, LATS2 (Homo sapiens, UniProt Q9NRM7); assay: kinome scan; type: binding; settings: 10 µM
T13 construct: purchased DiscoverX (KINOMEscan)

MARK4 = target: T14, MARK4 (Homo sapiens, UniProt Q96L34); assay: kinome scan; type: binding; settings: 10 µM
T14 construct: purchased DiscoverX (KINOMEscan)

CAMKK1 = target: T15, CAMKK1 (Homo sapiens, UniProt Q8N5S9); assay: kinome scan; type: binding; settings: 10 µM
T15 construct: purchased DiscoverX (KINOMEscan)

ANKK1 = target: T16, ANKK1 (Homo sapiens, UniProt Q8NFD2); assay: kinome scan; type: binding
T16 construct: purchased DiscoverX (KINOMEscan)
T16 sequence (Q8NFD2 1-765): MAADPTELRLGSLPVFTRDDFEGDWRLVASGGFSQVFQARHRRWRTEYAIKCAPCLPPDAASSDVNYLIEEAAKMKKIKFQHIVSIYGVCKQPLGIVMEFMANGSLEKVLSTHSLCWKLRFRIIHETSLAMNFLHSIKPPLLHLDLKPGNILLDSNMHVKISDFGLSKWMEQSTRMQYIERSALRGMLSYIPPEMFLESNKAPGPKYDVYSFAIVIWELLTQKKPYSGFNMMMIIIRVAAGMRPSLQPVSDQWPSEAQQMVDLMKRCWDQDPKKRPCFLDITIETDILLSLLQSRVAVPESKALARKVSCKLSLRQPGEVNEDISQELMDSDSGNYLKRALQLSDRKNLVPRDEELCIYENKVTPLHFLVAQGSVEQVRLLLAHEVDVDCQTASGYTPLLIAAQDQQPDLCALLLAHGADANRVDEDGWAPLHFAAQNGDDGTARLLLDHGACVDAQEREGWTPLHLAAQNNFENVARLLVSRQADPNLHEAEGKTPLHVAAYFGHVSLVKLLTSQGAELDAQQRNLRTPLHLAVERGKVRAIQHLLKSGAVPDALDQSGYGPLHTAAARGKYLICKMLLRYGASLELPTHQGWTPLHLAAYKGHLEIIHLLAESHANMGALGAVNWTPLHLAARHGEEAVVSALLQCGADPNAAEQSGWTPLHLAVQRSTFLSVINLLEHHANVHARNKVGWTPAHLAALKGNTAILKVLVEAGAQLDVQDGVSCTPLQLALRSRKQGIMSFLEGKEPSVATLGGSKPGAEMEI

p38-alpha = target: T17, p38-alpha (Homo sapiens, UniProt Q16539); assay: kinome scan; type: binding; settings: 10 µM
T17 construct: purchased DiscoverX (KINOMEscan)
T17 sequence (Q16539 whole entry): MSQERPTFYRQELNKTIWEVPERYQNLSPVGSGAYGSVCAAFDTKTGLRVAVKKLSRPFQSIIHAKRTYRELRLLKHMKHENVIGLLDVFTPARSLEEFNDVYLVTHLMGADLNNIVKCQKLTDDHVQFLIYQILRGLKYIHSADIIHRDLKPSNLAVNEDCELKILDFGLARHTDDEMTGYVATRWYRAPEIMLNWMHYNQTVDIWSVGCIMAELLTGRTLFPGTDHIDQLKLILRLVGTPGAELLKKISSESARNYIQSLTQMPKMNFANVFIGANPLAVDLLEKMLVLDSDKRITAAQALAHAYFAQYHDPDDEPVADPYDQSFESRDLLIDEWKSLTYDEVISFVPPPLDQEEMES

RIPK5 = target: T18, RIPK5 (Homo sapiens, UniProt Q6XUX3); assay: kinome scan; type: binding; settings: 10 µM
T18 construct: purchased DiscoverX (KINOMEscan)

MAP3K3 = target: T19, MAP3K3 (Homo sapiens, UniProt Q99759); assay: kinome scan; type: binding; settings: 10 µM
T19 construct: purchased DiscoverX (KINOMEscan)

MAP4K2 = target: T20, MAP4K2 (Homo sapiens, UniProt Q12851); assay: kinome scan; type: binding; settings: 10 µM
T20 construct: purchased DiscoverX (KINOMEscan)
T20 sequence (Q12851 whole entry): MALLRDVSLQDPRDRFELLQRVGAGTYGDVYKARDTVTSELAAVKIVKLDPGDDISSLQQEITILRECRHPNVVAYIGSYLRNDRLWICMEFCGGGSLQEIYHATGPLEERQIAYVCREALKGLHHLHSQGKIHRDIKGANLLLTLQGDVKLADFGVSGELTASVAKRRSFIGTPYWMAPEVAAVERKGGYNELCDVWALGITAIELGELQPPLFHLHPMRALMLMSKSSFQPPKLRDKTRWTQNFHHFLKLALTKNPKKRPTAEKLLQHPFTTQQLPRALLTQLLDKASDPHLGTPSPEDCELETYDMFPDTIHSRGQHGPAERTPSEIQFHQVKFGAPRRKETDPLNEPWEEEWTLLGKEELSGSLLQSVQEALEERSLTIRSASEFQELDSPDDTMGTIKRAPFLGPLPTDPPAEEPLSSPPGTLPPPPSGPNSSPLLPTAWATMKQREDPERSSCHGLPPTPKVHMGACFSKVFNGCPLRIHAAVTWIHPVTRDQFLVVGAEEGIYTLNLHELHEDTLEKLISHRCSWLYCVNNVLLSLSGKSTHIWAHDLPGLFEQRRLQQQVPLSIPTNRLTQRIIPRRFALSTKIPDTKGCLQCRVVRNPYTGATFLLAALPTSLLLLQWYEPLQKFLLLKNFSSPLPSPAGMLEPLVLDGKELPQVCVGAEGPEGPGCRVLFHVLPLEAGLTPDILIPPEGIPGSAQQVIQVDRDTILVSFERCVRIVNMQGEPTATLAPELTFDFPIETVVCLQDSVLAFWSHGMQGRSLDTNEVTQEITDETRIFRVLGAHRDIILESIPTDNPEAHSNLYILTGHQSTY

TRPM6 = target: T21, TRPM6 (Homo sapiens, UniProt Q9BX84); assay: kinome scan; type: binding; settings: 10 µM
T21 construct: purchased DiscoverX (KINOMEscan)

KIT = target: T22, KIT (Homo sapiens, UniProt P10721); assay: kinome scan; type: binding
T22 construct: purchased DiscoverX (KINOMEscan)
T22 sequence (P10721 26-976): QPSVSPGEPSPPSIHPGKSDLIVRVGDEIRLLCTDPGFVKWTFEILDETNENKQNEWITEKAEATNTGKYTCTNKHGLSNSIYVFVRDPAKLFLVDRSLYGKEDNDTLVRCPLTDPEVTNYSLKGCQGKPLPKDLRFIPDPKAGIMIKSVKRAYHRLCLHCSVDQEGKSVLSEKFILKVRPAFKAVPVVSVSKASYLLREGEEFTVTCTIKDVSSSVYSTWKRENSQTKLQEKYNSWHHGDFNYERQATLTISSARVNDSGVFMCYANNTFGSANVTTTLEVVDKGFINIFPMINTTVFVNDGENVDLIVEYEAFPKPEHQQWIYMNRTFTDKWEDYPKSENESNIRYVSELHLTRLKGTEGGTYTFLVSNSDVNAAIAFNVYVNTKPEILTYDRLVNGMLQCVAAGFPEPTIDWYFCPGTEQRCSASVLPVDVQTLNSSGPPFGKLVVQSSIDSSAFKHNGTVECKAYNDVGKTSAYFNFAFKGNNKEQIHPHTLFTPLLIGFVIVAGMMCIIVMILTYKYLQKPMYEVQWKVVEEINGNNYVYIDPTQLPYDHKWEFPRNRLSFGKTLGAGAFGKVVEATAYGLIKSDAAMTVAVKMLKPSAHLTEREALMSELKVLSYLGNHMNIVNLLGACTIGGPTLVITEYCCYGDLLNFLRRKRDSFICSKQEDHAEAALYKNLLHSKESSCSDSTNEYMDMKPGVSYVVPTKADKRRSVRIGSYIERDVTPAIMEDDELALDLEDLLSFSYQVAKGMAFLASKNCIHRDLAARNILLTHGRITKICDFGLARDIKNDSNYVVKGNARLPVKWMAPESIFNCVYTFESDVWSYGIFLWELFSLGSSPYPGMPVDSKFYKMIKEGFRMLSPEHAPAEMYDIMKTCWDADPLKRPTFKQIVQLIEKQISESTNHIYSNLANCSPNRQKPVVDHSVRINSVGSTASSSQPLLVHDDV

CAMK1 = target: T23, CAMK1 (Homo sapiens, UniProt Q14012); assay: kinome scan; type: binding; settings: 10 µM
T23 construct: purchased DiscoverX (KINOMEscan)

PAK3 = target: T24, PAK3 (Homo sapiens, UniProt O75914); assay: kinome scan; type: binding; settings: 10 µM
T24 construct: purchased DiscoverX (KINOMEscan)

PIK3CA(H1047Y) = target: T25, PIK3CA(H1047Y) (Homo sapiens, UniProt P42336, H1047Y); assay: kinome scan; type: binding; settings: 10 µM
T25 construct: purchased DiscoverX (KINOMEscan)

EGFR(L747-T751delSins) = assay: kinome scan; type: binding, human; settings: 10 µM
CLK3 = target: T26, CLK3 (Homo sapiens, UniProt P49761); assay: kinome scan; type: binding; settings: 10 µM
T26 construct: purchased DiscoverX (KINOMEscan)

T2 sequence (Q8WTQ7 whole entry): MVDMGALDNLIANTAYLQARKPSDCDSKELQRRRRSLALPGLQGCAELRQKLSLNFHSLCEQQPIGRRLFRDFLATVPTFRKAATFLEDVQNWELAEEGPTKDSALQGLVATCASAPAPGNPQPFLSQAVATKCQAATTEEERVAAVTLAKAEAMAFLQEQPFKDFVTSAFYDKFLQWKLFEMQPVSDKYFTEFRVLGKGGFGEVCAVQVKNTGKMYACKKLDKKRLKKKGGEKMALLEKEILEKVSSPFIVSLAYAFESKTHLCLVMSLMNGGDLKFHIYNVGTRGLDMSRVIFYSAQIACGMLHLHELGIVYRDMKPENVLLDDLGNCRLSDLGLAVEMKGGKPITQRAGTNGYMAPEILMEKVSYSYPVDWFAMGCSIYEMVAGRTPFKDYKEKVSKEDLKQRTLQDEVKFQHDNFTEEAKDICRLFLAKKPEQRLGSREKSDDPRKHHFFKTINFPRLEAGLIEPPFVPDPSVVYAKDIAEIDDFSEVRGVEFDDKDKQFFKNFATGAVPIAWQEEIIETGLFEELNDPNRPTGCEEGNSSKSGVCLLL

Nc1ccc(N=Nc2ccccc2)c(N)n1 [phenazopyridine, 2,6-diamino-3-(phenylazo)pyridine]
kinase inhibition (PCTK3): 75
kinase inhibition (GRK7): 100
kinase inhibition (TESK1): 100
regulation of the ERK pathway (ERK phosphorylation) (ERK): not confirmed
kinase inhibition (ULK1): 100
kinase inhibition (AURKC): 68
kinase inhibition (CSNK1E): 44
kinase inhibition (STK36): 99
kinase inhibition (HCK): 100
kinase inhibition (PIP5K1A): 56
kinase inhibition (MAP3K2): 85
kinase inhibition (EGFR(L858RT790M)): 100
kinase inhibition (NEK2): 81
kinase inhibition (LATS2): 100
kinase inhibition (MARK4): 84
kinase inhibition (CAMKK1): 100
remaining binding (% of control) (ANKK1; 10 µM): 18
remaining binding at 10 µM (ANKK1; read-out: % Of control): 18%
kinase inhibition (p38-alpha): 100
kinase inhibition (RIPK5): 68
kinase inhibition (MAP3K3): 89
kinase inhibition (MAP4K2): 65
kinase inhibition (TRPM6): 100
percent of control binding remaining (KIT; KIT, 10 µM): 41
remaining binding at 10 µM (KIT; c-KIT wt, read-out: Kinome scan (% of control at 10 µM)): 41%
kinase inhibition (CAMK1): 100
kinase inhibition (PAK3): 99
kinase inhibition (PIK3CA(H1047Y)): 100
kinase inhibition (EGFR(L747-T751delSins)): 80
kinase inhibition (CLK3): 99
